Values quoted from earlier work in patent publication US20100158905A1, “COMBINATION THERAPY OF ARTHRITIS WITH TRANILAST” (NUON THERAPEUTICS, INC., priority 2008, published 2010).

tested on: rheumatoid arthritis; details: usual maintenance dose

| Molecule | Approximate time to benefit |
| --- | --- |
| CCN(CCO)CCCC(C)Nc1ccnc2cc(Cl)ccc12 (stereo not shown) [Hydroxychloroquine] | 2-6 months |
| O=C(O)c1cc(/N=N/c2ccc(S(=O)(=O)Nc3ccccn3)cc2)ccc1O [Sulfasalazine] | 1-3 months |
| CN(Cc1cnc2nc(N)nc(N)c2n1)c1ccc(C(=O)N[C@@H](CCC(=O)O)C(=O)O)cc1 [Methotrexate] | 1-2 months |
| Cn1cnc([N+](=O)[O-])c1Sc1ncnc2nc[nH]c12 [Azathioprine] | 2-3 months |
| Cc1oncc1C(=O)Nc1ccc(C(F)(F)F)cc1 [Leflunomide] | 4-12 weeks (skewed earlier) |
| Etanercept | A few days to 12 weeks |
| CC(C)(S)[C@@H](N)C(=O)O [D-penicillamine] | 3-6 months |

tested on: RA; details: used in combination with methotrexate

| Molecule | improvements in treating RA |
| --- | --- |
| infliximab: tumor necrosis factor (TNF) antagonist | marked improvements |
| Adalimumab | marked improvements |
| Etanercept | marked improvements |
